From patent EP4722207A1, “OXOISOINDOLINYL-SUBSTITUTED TETRAHYDROPYRIMIDINEDIONE DERIVATIVE AND USE THEREOF” (Gluetacs Therapeutics (Shanghai) Co., Ltd., priority 2023, dated 2024)

Columns and labels:
Type in all cases: cell-based
Details in all cases: 24 hours of compound treatment, 50 nM and 500 nM
WEE1 = target: T1, WEE1 (Homo sapiens, UniProt P30291+Q96SW2); assay: Western-blot assay, substrate protein degradation in hPBMCs: WEE1
T1 construct: effects of the compounds of the present disclosure on the expression of target proteins in cells; endogenous in cells; host or cells: human PBMCs (hPBMCs)

IKZF1 = target: T2, IKZF1 (Homo sapiens, UniProt Q13422+Q96SW2); assay: Western-blot assay, substrate protein degradation in hPBMCs: IKZF1
T2 construct: effects of the compounds of the present disclosure on the expression of target proteins in cells; endogenous in cells; host or cells: human PBMCs (hPBMCs)

IKZF2 = target: T3, IKZF2 (Homo sapiens, UniProt Q96SW2+Q9UKS7); assay: Western-blot assay, substrate protein degradation in hPBMCs: IKZF2
T3 construct: effects of the compounds of the present disclosure on the expression of target proteins in cells; endogenous in cells; host or cells: human PBMCs (hPBMCs)

IKZF3 = target: T4, IKZF3 (Homo sapiens, UniProt Q96SW2+Q9UKT9); assay: Western-blot assay, substrate protein degradation in hPBMCs: IKZF3
T4 construct: effects of the compounds of the present disclosure on the expression of target proteins in cells; endogenous in cells; host or cells: human PBMCs (hPBMCs)

CK1α = target: T5, CK1α (Homo sapiens, UniProt P48729+Q96SW2); assay: Western-blot assay, substrate protein degradation in hPBMCs: CK1α
T5 construct: effects of the compounds of the present disclosure on the expression of target proteins in cells; endogenous in cells; host or cells: human PBMCs (hPBMCs)

GSPT1 = target: T6, GSPT1 (Homo sapiens, UniProt P15170+Q96SW2); assay: Western-blot assay, substrate protein degradation in hPBMCs: GSPT1
T6 construct: effects of the compounds of the present disclosure on the expression of target proteins in cells; endogenous in cells; host or cells: human PBMCs (hPBMCs)
T6 sequence (P15170 whole entry): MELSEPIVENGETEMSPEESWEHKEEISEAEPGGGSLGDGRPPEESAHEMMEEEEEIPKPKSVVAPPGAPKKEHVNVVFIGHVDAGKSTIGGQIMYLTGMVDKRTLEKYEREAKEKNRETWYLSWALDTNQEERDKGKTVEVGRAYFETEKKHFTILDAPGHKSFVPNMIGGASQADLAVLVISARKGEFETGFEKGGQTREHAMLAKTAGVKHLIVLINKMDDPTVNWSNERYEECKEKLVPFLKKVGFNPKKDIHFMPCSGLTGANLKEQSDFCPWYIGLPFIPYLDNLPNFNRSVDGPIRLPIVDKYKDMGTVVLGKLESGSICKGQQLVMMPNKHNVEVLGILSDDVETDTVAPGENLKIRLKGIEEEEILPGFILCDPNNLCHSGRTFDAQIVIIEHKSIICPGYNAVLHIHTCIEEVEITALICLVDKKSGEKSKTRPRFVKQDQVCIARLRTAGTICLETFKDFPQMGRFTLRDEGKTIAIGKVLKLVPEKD
T6 sequence (Q96SW2 whole entry): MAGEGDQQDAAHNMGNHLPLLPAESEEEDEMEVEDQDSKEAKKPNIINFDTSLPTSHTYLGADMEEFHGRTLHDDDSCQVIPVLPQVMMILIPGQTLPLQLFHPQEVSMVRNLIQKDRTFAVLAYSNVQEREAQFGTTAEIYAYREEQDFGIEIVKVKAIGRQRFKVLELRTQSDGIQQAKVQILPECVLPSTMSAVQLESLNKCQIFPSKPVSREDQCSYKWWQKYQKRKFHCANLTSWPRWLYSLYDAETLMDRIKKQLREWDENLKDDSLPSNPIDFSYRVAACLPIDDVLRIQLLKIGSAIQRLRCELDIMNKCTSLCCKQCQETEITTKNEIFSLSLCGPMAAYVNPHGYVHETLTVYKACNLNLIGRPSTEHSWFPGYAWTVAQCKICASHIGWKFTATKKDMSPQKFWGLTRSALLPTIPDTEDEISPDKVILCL
T6 sequence (Q16531 whole entry partner): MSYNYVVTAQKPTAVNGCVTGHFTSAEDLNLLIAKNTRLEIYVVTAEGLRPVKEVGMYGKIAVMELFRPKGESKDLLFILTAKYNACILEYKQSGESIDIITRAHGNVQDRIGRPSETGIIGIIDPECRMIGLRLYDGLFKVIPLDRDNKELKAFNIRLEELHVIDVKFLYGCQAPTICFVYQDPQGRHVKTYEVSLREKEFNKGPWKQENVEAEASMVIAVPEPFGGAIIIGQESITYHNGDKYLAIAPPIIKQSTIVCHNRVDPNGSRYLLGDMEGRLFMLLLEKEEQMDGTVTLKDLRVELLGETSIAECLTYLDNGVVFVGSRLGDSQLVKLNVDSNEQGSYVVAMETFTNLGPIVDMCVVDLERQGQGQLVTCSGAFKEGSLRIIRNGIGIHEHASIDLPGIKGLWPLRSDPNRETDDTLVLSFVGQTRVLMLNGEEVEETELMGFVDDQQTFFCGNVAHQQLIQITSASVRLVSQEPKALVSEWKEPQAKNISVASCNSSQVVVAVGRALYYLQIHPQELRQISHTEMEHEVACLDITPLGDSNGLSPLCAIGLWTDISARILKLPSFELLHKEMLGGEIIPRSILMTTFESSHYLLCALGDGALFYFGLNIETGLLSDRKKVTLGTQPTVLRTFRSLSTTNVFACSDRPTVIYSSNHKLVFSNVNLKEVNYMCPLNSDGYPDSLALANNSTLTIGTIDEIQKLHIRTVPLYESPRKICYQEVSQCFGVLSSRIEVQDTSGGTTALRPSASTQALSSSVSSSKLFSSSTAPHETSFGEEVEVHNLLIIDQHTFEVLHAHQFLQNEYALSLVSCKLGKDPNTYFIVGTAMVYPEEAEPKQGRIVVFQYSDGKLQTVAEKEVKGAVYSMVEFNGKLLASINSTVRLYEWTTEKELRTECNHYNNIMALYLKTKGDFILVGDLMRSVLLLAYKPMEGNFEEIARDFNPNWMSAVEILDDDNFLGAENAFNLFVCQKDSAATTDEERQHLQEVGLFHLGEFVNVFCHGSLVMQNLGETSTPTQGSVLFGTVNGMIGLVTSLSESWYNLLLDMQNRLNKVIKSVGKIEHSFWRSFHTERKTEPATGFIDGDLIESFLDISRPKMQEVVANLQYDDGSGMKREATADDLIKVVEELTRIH

T5 sequence (P48729 whole entry): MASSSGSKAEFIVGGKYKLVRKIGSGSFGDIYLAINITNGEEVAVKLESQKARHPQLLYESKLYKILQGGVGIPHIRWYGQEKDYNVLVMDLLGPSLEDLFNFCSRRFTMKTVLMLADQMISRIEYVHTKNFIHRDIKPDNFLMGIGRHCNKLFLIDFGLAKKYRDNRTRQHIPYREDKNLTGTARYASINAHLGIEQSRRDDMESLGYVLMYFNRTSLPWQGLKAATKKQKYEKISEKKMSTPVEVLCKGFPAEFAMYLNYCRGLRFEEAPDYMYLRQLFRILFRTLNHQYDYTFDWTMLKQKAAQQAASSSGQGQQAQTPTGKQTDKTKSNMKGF
T5 sequence (Q96SW2 whole entry): as the sequence (Q96SW2 whole entry) above
T5 sequence (Q16531 whole entry partner): as the sequence (Q16531 whole entry partner) above
T3 sequence (Q9UKS7 whole entry): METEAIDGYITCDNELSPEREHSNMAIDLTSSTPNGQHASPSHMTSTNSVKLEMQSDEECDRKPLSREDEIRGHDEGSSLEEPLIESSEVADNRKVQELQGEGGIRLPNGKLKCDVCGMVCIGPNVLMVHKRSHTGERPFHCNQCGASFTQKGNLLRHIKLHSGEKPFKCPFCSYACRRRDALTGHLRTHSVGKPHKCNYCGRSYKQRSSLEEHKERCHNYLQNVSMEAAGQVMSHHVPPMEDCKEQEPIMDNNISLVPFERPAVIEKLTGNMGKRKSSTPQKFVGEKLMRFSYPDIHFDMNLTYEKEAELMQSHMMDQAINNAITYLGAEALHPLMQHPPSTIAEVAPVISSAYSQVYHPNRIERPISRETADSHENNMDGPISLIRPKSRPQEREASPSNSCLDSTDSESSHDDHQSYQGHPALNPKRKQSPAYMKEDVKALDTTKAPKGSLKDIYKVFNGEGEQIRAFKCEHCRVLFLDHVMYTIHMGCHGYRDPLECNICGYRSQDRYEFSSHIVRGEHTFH
T3 sequence (Q96SW2 whole entry): as the sequence (Q96SW2 whole entry) above
T3 sequence (Q16531 whole entry partner): as the sequence (Q16531 whole entry partner) above
T1 sequence (P30291 whole entry): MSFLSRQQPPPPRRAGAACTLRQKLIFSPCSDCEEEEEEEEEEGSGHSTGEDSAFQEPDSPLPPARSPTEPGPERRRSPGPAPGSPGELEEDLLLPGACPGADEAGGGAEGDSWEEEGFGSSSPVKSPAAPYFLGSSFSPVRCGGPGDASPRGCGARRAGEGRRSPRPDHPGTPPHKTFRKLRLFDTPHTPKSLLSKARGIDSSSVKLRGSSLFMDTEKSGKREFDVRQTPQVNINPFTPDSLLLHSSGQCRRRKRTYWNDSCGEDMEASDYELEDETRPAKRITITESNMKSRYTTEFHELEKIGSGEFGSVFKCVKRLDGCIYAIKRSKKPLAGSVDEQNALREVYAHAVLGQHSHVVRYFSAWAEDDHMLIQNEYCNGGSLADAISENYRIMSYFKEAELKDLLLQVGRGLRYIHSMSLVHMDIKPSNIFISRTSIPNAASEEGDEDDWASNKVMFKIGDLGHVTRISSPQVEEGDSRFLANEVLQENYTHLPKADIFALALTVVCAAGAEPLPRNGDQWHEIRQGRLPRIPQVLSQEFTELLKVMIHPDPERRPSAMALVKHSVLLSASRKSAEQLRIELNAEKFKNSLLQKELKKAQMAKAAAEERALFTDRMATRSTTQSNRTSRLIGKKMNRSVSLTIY
T1 sequence (Q96SW2 whole entry): as the sequence (Q96SW2 whole entry) above
T1 sequence (Q16531 whole entry partner): as the sequence (Q16531 whole entry partner) above
T2 sequence (Q13422 whole entry): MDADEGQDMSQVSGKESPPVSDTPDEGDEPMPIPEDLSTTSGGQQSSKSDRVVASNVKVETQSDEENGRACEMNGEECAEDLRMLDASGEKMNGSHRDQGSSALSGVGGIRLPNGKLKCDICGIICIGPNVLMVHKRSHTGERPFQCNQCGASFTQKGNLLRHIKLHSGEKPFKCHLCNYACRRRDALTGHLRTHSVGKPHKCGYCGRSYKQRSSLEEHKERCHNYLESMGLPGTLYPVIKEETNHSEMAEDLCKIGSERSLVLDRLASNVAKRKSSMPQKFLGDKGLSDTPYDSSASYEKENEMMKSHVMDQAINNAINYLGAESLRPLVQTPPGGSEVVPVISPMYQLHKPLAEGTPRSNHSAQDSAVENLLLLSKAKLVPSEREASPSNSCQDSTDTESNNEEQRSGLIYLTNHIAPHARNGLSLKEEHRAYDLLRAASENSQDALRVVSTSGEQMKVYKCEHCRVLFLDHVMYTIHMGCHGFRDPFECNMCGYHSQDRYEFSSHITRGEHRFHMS
T2 sequence (Q96SW2 whole entry): as the sequence (Q96SW2 whole entry) above
T2 sequence (Q16531 whole entry partner): as the sequence (Q16531 whole entry partner) above

SMILES	substrate protein remaining % WEE1 (WEE1)	substrate protein remaining % IKZF1 (IKZF1)	substrate protein remaining % IKZF2 (IKZF2)	substrate protein remaining % IKZF3 (IKZF3)	substrate protein remaining % CK1α (CK1α)	substrate protein remaining % GSPT1 (GSPT1)
O=C1CCN(N2C(=O)c3ccc(CN4CC=C(c5ccoc5)CC4)cc3C2=O)C(=O)N1 [GT-07442, 2-(2,4-dioxotetrahydropyrimidin-1(2H)-yl)-5-((4-(furan-3-yl)-3,6-dihydropyridin-1(2H)-yl)methyl)isoindoline-1,3-dione]	A (0% ≤ substrate protein remaining % ≤ 80%)	B (80%< substrate protein remaining %≤ 100%)	B (80%< substrate protein remaining %≤ 100%)	A (0% ≤ substrate protein remaining % ≤ 80%)	B (80%< substrate protein remaining %≤ 100%)	A (0% ≤ substrate protein remaining % ≤ 80%)
O=C1CCN(N2C(=O)c3ccc(CN4CC=C(c5cncc(Cl)c5)CC4)cc3C2=O)C(=O)N1 [GT-07491, 5-((5-chloro-3',6'-dihydro-[3,4'-bipyridin]-1'(2'H)-yl)methyl)-2-(2,4-dioxotetrahydropyrimidin-1(2H)-yl)isoindoline-1,3-dione]	A (0% ≤ substrate protein remaining % ≤ 80%)	B (80%< substrate protein remaining %≤ 100%)	B (80%< substrate protein remaining %≤ 100%)	B (80%< substrate protein remaining %≤ 100%)	B (80%< substrate protein remaining %≤ 100%)	A (0% ≤ substrate protein remaining % ≤ 80%)
O=C1CCN(N2C(=O)c3ccc(CN4CC=C(c5ncccc5F)CC4)cc3C2=O)C(=O)N1 [GT-07492, 2-(2,4-dioxotetrahydropyrimidin-1(2H)-yl)-5-((3-fluoro-3',6'-dihydro-[2,4'-bipyridin]-1'(2'H)-yl)methyl)isoindoline-1,3-dione]	B (80%< substrate protein remaining %≤ 100%)	B (80%< substrate protein remaining %≤ 100%)	B (80%< substrate protein remaining %≤ 100%)	B (80%< substrate protein remaining %≤ 100%)	A (0% ≤ substrate protein remaining % ≤ 80%)	B (80%< substrate protein remaining %≤ 100%)
O=C1CCN(N2C(=O)c3ccc(CN4CCC(c5ccnc(F)c5F)CC4)cc3C2=O)C(=O)N1 [GT-07493, 5-((4-(2,3-difluoropyridin-4-yl)piperidin-1-yl)methyl)-2-(2,4-dioxotetrahydropyrimidin-1(2H)-yl)isoindoline-1,3-dione]	B (80%< substrate protein remaining %≤ 100%)	B (80%< substrate protein remaining %≤ 100%)	B (80%< substrate protein remaining %≤ 100%)	A (0% ≤ substrate protein remaining % ≤ 80%)	A (0% ≤ substrate protein remaining % ≤ 80%)	B (80%< substrate protein remaining %≤ 100%)
O=C1CCN(N2C(=O)c3ccc(CN4CC=C(c5ccnc(F)c5F)CC4)cc3C2=O)C(=O)N1 [GT-07494, 5-((2',3'-difluoro-3,6-dihydro-[4,4'-bipyridin]-1(2H)-yl)methyl)-2-(2,4-dioxotetrahydropyrimidin-1(2H)-yl)isoindoline-1,3-dione]	A (0% ≤ substrate protein remaining % ≤ 80%)	B (80%< substrate protein remaining %≤ 100%)	B (80%< substrate protein remaining %≤ 100%)	B (80%< substrate protein remaining %≤ 100%)	A (0% ≤ substrate protein remaining % ≤ 80%)	B (80%< substrate protein remaining %≤ 100%)
O=C1CCN(N2Cc3cc(CN4CCC(c5ccon5)CC4)ccc3C2=O)C(=O)N1 [GT-07495, 1-(5-((4-(isoxazol-3-yl)piperidin-1-yl)methyl)-1-oxoisoindolin-2-yl)dihydropyrimidine-2,4(1H,3H)-dione]	B (80%< substrate protein remaining %≤ 100%)	B (80%< substrate protein remaining %≤ 100%)	B (80%< substrate protein remaining %≤ 100%)	B (80%< substrate protein remaining %≤ 100%)	A (0% ≤ substrate protein remaining % ≤ 80%)	A (0% ≤ substrate protein remaining % ≤ 80%)
O=C1CCN(N2Cc3cc(CN4CCN(c5noc6cc(F)ccc56)CC4)ccc3C2=O)C(=O)N1 [GT-07496, 1-(5-((4-(6-fluorobenzo[d]isoxazol-3-yl)piperazin-1-yl)methyl)-1-oxoisoindolin-2-yl)dihydropyrimidine-2,4(1H,3H)-dione]	B (80%< substrate protein remaining %≤ 100%)	B (80%< substrate protein remaining %≤ 100%)	B (80%< substrate protein remaining %≤ 100%)	B (80%< substrate protein remaining %≤ 100%)	A (0% ≤ substrate protein remaining % ≤ 80%)	A (0% ≤ substrate protein remaining % ≤ 80%)
O=C1CCN(N2Cc3cc(CN4CCN(c5noc6ccncc56)CC4)ccc3C2=O)C(=O)N1 [GT-07497, 1-(5-((4-(isoxazolo[4,5-c]pyridin-3-yl)piperazin-1-yl)methyl)-1-oxoisoindolin-2-yl)dihydropyrimidine-2,4(1H,3H)-dione]	A (0% ≤ substrate protein remaining % ≤ 80%)	A (0% ≤ substrate protein remaining % ≤ 80%)	A (0% ≤ substrate protein remaining % ≤ 80%)	B (80%< substrate protein remaining %≤ 100%)	A (0% ≤ substrate protein remaining % ≤ 80%)	A (0% ≤ substrate protein remaining % ≤ 80%)
O=C1CCN(N2Cc3cc(CN4CCN(c5nsc6cc(F)ccc56)CC4)ccc3C2=O)C(=O)N1 [GT-07500, 1-(5-((4-(6-fluorobenzo[d]isothiazol-3-yl)piperazin-1-yl)methyl)-1-oxoisoindolin-2-yl)dihydropyrimidine-2,4(1H,3H)-dione]	A (0% ≤ substrate protein remaining % ≤ 80%)	A (0% ≤ substrate protein remaining % ≤ 80%)	B (80%< substrate protein remaining %≤ 100%)	B (80%< substrate protein remaining %≤ 100%)	A (0% ≤ substrate protein remaining % ≤ 80%)	A (0% ≤ substrate protein remaining % ≤ 80%)
O=C1CCN(N2Cc3cc(CN4CCN(c5c[nH]c6ncccc56)CC4)ccc3C2=O)C(=O)N1 [GT-07502, 1-(5-((4-(1H-pyrrolo[2,3-b]pyridin-3-yl)piperazin-1-yl)methyl)-1-oxoisoindolin-2-yl)dihydropyrimidine-2,4(1H,3H)-dione]	A (0% ≤ substrate protein remaining % ≤ 80%)	A (0% ≤ substrate protein remaining % ≤ 80%)	B (80%< substrate protein remaining %≤ 100%)	B (80%< substrate protein remaining %≤ 100%)	A (0% ≤ substrate protein remaining % ≤ 80%)	A (0% ≤ substrate protein remaining % ≤ 80%)
O=C1CCN(N2Cc3cc(CN4CCC(n5cnc6cc(F)ccc65)CC4)ccc3C2=O)C(=O)N1 [GT-07503, 1-(5-((4-(5-fluoro-1H-benzo[d]imidazol-1-yl)piperidin-1-yl)methyl)-1-oxoisoindolin-2-yl)dihydropyrimidine-2,4(1H,3H)-dione]	A (0% ≤ substrate protein remaining % ≤ 80%)	A (0% ≤ substrate protein remaining % ≤ 80%)	B (80%< substrate protein remaining %≤ 100%)	B (80%< substrate protein remaining %≤ 100%)	A (0% ≤ substrate protein remaining % ≤ 80%)	A (0% ≤ substrate protein remaining % ≤ 80%)
